Source: PMC11528320, “S-MGBs bearing amidine tail groups are potent, selective antiplasmodial agents” (RSC Medicinal Chemistry, 2024)
Read-outs that look alike come from different tables or passages of the source.

Legend:
P. falciparum Dd2 = assay: in vitro asexual P. falciparum imaging assay, Dd2 strain; assay type: cell-based; details: for IC50: Plasmodium falciparum, DD2, 72 h, read-out: Dd2 IC50; for Dd2/3D7: ratio of Dd2 IC50 to 3D7 IC50 (cross-resistance)
Experimental: (§1) The antiplasmodial in vitro assay was performed as previously described.[13] In brief, P. falciparum parasites (3D7 and Dd2 strains) were grown in RPMI-1640 medium supplemented with 25 mM HEPES, 5% AB human male serum, 2.5 mg mL^−1 Albumax II, and 0.37 mM hypoxanthine. Parasites were subjected to two rounds of sorbitol synchronization prior to compound addition. Ring stage parasites were incubated with compounds in 384-well imaging CellCarrier microplates, for 72 h at 37 °C, 90% N2, 5% CO2, 5% O2, parasites stained with 4′,6-diamidino-2-phenylindole (DAPI) and imaged using an Opera QEHS microplate confocal imaging system (PerkinElmer). Images were analysed as previously described,[13] and raw data normalized using the in-plate positive and negative controls to obtain percent inhibition, used to calculate IC50 values, through a four-parameter logistic curve fitting in Prism (GraphPad).

[1] = tested on: double stranded DNA oligo 5′-CGCATATATGCG-3′; assay: native mass spectrometry (nESI-MS) of binding to dsDNA oligo; details: 9 μM DNA, 100 μM S-MGB
Experimental: DNA oligonucleotide sequence 5′-[…]-3′ was purchased in lyophilized form from Alpha DNA, Canada) and used without further purification, purity assessed by NMR. 100 μM stock solutions of DNA were prepared with 150 mM ammonium acetate solution (Fisher Scientific, Loughborough, Leicestershire, UK) and 2 mM potassium chloride solution (Fisher Scientific, Loughborough, Leicestershire, UK). This solution was annealed at 90 degrees for 10 minutes and allowed to cool to room temperature. 10 mM S-MGB stock in 100% DMSO (Sigma-Aldrich, St. Louis, MO, USA) were diluted to 1 mM S-MGB solution with 150 mM ammonium acetate. Final samples were prepared from this solution to yield final concentrations of 9 μM DNA, 100 μM KCl, and 100 μM s-MGB, 1% DMSO. DNA solutions containing no S-MGB included 1% DMSO and were used as controls.
Native mass spectrometry experiments were carried out on a Synapt G2Si instrument (Waters, Manchester, UK) with a nanoelectrospray ionization source (nESI). Mass calibration was performed by a separate infusion of NaI cluster ions. Solutions were ionized from a thin-walled borosilicate glass capillary (i.d. 0.78 mm, o.d. 1.0 mm, Sutter Instrument Co., Novato, CA, USA) pulled in-house to nESI tip with a Flaming/Brown micropipette puller (Sutter Instrument Co., Novato, CA, USA). A negative potential in range of 1.0–1.2 kV was applied to the solution via a thin platinum wire (diameter 0.125 mm, Goodfellow, Huntingdon, UK). The following non-default instrument parameters were used for the DNA: S-MGB-241 complex: capillary voltage 1.4 kV, sample cone voltage 100 V, source offset 110 V, source temperature 40 °C, trap collision energy 3.0 (V), trap gas 3 mL min^−1. For DNA with no MGB present, the following parameters were changed: capillary voltage 1.0 kV, sample cone voltage 80 V, source offset 95 V and trap gas 4.0 mL min^−1. Data were processed using Masslynx V4.2 and OriginPro 2021, and figures were produced using Chemdraw.

[2] = tested on: Salmon genomic DNA (gDNA); assay: UV-vis DNA thermal melting (thermal shift) with gDNA; assay type: binding; details: 10 μM S-MGB, 0.02 mg mL^−1 salmon gDNA, N = 3; for Tm of S-MGB + gDNA: gDNA alone 70
Experimental: Salmon genomic DNA (gDNA; D1626, Sigma-Aldrich) at 1 mg mL^−1 in 1 mM phosphate buffer (pH 7.4) containing 0.27 mM KCl and 13.7 mM NaCl (P4417, Sigma-Aldrich) was annealed at 90 °C for 10 min and left to cool to room temperature. S-MGBs at 10 mM in DMSO were diluted with the same phosphate buffer to yield a single sample with 10 μM S-MGB and 0.02 mg mL^−1 gDNA in 1 mM phosphate buffer containing 0.27 mM KCl and 13.7 mM NaCl. Control samples containing only S-MGB or gDNA were prepared, respectively. Samples were melted at a rate of 0.5 °C min^−1 from 45 °C to 90 °C with spectra recorded at 260 nm on a UV-1900 UV-vis spectrophotometer fitted with a Peltier temperature controller (Shimadzhu) using LabSolutions (Tm Analysis) software. The melting temperatures (Tms) of the S-MGB:DNA complexes were determined by fitting a sigmoidal function using a Boltzmann distribution in OriginPro.

HEK293 cells = assay: HEK293 cell viability (resazurin) assay; assay type: cell-based, Human; details: for inhibition at 80 µM: Homo sapiens, HEK293, 72 h; for SI, HEK293/3D7: ratio of HEK293 IC50 (or relative IC50) to P. falciparum 3D7 IC50
Experimental: Cell viability was assessed using a minor modification of the protocol previously described.[14] Human embryonic kidney cells (HEK293) were maintained in Dulbecco's modified Eagle's medium supplemented with 10% foetal bovine serum.

P. falciparum 3D7 = assay: in vitro asexual P. falciparum imaging assay, 3D7 strain; assay type: cell-based; details: Plasmodium falciparum
Experimental: as §1

[3] = 3D7, strain not specified, read-out: potency against P. falciparum (approximate, conclusion)

| Compound | IC50 (P. falciparum Dd2) [nM] | Dd2/3D7 (P. falciparum Dd2) | binding to dsDNA as dimer [DS + 2 M] [1] | binding to dsDNA as monomer [DS + 1 M] [1] | ΔTm [2] [°C] | Tm of S-MGB + gDNA [2] [°C] | inhibition at 80 µM (HEK293 cells) [%] | HEK293 top concentration tested, used to calculate SI (HEK293 cells; not rIC50 as < 30% inhibition) [nM] | SI, HEK293/3D7 (HEK293 cells) | SI, HEK293/3D7 (HEK293 cells; listed as 359) | IC50 (P. falciparum 3D7; 3D7, 72 h, read-out: 3D7 IC50) [nM] | IC50 (P. falciparum 3D7; [3]) [nM] | SI, HEK293/3D7 (HEK293 cells; listed as S-MGB-356) | SI, HEK293/3D7 (HEK293 cells; listed as 368) |
| --- | --- | --- | --- | --- | --- | --- | --- | --- | --- | --- | --- | --- | --- | --- |
| Cn1cc(NC(=O)c2cc(NC(=O)c3ccc(/C=C/c4ccc5ccccc5c4)cc3)cn2C)cc1C(=O)NCCC(=N)N.O=C(O)C(F)(F)F [S-MGB-359] | 318.6 ± 1.1 | 1.1 | bind to DNA as dimers | minor peak corresponding to the monomer complex | 16 | 86 | 23 | 80 | > 264.8 | >264.8 | 302.1 ± 0.6 | ~100 | – | – |
| Cn1cc(NC(=O)c2cc(NC(=O)c3ccc(/C=C/c4ccncc4)cc3)cn2C)cc1C(=O)NCCC(=N)N.O=C(O)C(F)(F)F.O=C(O)C(F)(F)F [S-MGB-365] | 79.6 ± 0.2 | 1.2 | bind to DNA as dimers | no evidence | 12 | 82 | 95 | – | >612.6 | – | 65.3 ± 0.2 | ~100 | > 612.6 | – |
| COc1cccc(/C=C/c2ccc(C(=O)Nc3cc(C(=O)Nc4cc(C(=O)NCCC(=N)N)n(C)c4)n(C)c3)cn2)c1.O=C(O)C(F)(F)F.O=C(O)C(F)(F)F [S-MGB-368] | 201.7 ± 0.3 | 1.5 | bind to DNA as dimers | no evidence | 3 | 73 | 92 | – | > 335.8 | – | 134 ± 0.3 | ~100 | – | >335.8 |
